Reference: PMC5567249, “Reversible inactivation of a peptidoglycan transpeptidase by a β-lactam antibiotic mediated by β-lactam-ring recyclization in the enzyme active site” (Scientific Reports, 2017)

How the values were obtained:
Ldtfm [1] = molecular target: T1, Ldtfm (Enterococcus faecium, UniProt Q3Y185); experiment: stopped-flow competition with nitrocefin at […] nm; type: binding; conditions: covalent; irreversible acylation; 22 µM enzyme, 50 µM nitrocefin, 64 µM imipenem; 100 mM sodium phosphate pH 6.0; 20 °C
T1 construct: gene HMPREF0351_12555; catalytic domain, residues 341 to 466

Ldtfm [2] = molecular target: T1, Ldtfm; experiment: stopped-flow spectrophotometry at […] nm, slope of kobs against nitrocefin concentration; type: biochemical; conditions: covalent; reversible acylation of catalytic Cys; 11 µM enzyme; 100 mM sodium phosphate pH 6.0; 20 °C

T1 sequence (Q3Y185 entry or part of it): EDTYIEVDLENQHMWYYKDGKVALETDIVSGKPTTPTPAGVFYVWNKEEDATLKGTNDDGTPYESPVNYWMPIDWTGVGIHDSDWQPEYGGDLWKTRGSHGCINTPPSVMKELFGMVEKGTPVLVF

SMILES	stopped-flow competition with nitrocefin at 486 nm (Ldtfm [1])	efficacy of the acylation reaction (Ldtfm [2])
C[C@@H](O)[C@H]1C(=O)N2C(C(=O)O)=C(SCCN=CN)C[C@H]12 [imipenem]	imipenem gradually replaced nitrocefin in the enzyme active site	
O=C(Cc1cccs1)N[C@@H]1C(=O)N2C(C(=O)O)=C(/C=C/c3ccc([N+](=O)[O-])cc3[N+](=O)[O-])CS[C@H]12 [nitrocefin]		24,000 ± 700 M^−1 s^−1
